From patent publication US20250161294A1, “COMPOSITIONS AND METHODS FOR TREATMENT OF OCULAR DISORDERS” (Bausch + Lomb Ireland Limited, priority 2023, published 2025)
One block for each compound: values may come before it.

Legend:
[1] = Solubility of lifitegrast free acid in F6H8; assay type: physicochemical; settings: lifitegrast free acid added to F6H8 at 0.25% to 10% (w/w); forms a suspension
Description: The lifitegrast is in soluble in F6H8 and forms a suspension. When left standing the lifitegrast settles to form a sediment.

S. aureus = experiment: Antimicrobial properties of F6H8, Ph. Eur. 5.1.3 method; assay type: cell-based; settings: for Count: inoculum 2 × 10^5
C. albicans = experiment: as above; assay type: cell-based; settings: for Count: inoculum 9 × 10^5
Description: (§1) The antimicrobial properties of F6H8 were evaluated according to the Ph. Eur. 5.1.3 method.

E. coli = experiment: as above; assay type: cell-based; settings: for Count: inoculum 2 × 10^5
Description: as §1

A. brasiliensis = experiment: as above; assay type: cell-based; settings: for Count: inoculum 7 × 10^5
Description: as §1

P. aeruginosa = experiment: as above; assay type: cell-based; settings: for Count: inoculum 8 × 10^5
Description: as §1

[2] = test system: viable bacteria; yeasts and molds; experiment: Antimicrobial effectiveness acceptance criteria, Ph. Eur. 5.1.3 (overall); assay type: cell-based; settings: bacteria: >=2 log reduction at 6 hours, >=3 log at 24 hours, no recovery at 28 days; yeasts and molds: >=2 log at 7 days, no increase at 28 days; no extrinsic preservative
Description: as §1

Solubility in F6H8 [1]: in soluble
Compound: CS(=O)(=O)c1cccc(C[C@H](NC(=O)c2c(Cl)cc3c(c2Cl)CCN(C(=O)c2ccc4ccoc4c2)C3)C(=O)O)c1 [lifitegrast]

Compound: CCCCCCCCC(F)(F)C(F)(F)C(F)(F)C(F)(F)C(F)(F)C(F)(F)F [F6H8, 1-perfluorohexyloctane]
Log reduction (S. aureus; 0 hour): 4.1 | Log reduction (S. aureus; 6 hours): 5.3 | Count (S. aureus; 6 hours): 0 | Log reduction (S. aureus; 24 hours): 5.3 | Count (S. aureus; 24 hours): 0 | Log reduction (S. aureus; 28 days): 5.3 | Count (S. aureus; 28 days): 0 | Log reduction (C. albicans; 0 hour): 2.3 | Count (C. albicans; 0 hour): 5 × 10^3 | Log reduction (C. albicans; 7 days): 6.0 | Count (C. albicans; 7 days): 0 | Log reduction (C. albicans; 28 days): 6.0 | Count (C. albicans; 28 days): 0 | Log reduction (E. coli; 0 hour): 1.0 | Count (E. coli; 0 hour): 2 × 10^4 | Log reduction (E. coli; 6 hours): 5.3 | Count (E. coli; 6 hours): 0 | Log reduction (E. coli; 24 hours): 5.3 | Count (E. coli; 24 hours): 0 | Log reduction (E. coli; 28 days): 5.3 | Count (E. coli; 28 days): 0 | Log reduction (A. brasiliensis; 0 hour): 0.9 | Count (A. brasiliensis; 0 hour): 8 × 10^4 | Log reduction (A. brasiliensis; 7 days): 2.8 | Count (A. brasiliensis; 7 days): 1 × 10^3 | Log reduction (A. brasiliensis; 28 days): 2.5 | Count (A. brasiliensis; 28 days): 2 × 10^3 | Log reduction (P. aeruginosa; 0 hour): 1.2 | Count (P. aeruginosa; 0 hour): 5 × 10^4 | Log reduction (P. aeruginosa; 6 hours): 3.3 | Count (P. aeruginosa; 6 hours): 4 × 10^2 | Log reduction (P. aeruginosa; 24 hours): 5.0 | Count (P. aeruginosa; 24 hours): 8 | Log reduction (P. aeruginosa; 28 days): 5.9 | Count (P. aeruginosa; 28 days): 0 | Acceptance criteria of the antimicrobial effectiveness assay [2]: meets the acceptance criteria
